Blank lines part the entries; values can stand above or below the molecule they belong to. Active and inactive are the calls of the source. The rule behind the calls is not given here.
Experiments:
DU-145 [1] = experiment: Down regulation of EGFR protein expression in human DU145 cells at 48 hrs IC50 incubated for 96 hrs by Western immunoblot assay relative to control; type: functional
PC-3 [2] = experiment: Effect on human PC3 cell growth assessed as no change in population doubling at 48 hr IC50 incubated for 48 hrs by cell counter based trypan blue exclusion assay; type: functional
PC-3 [3] = experiment: Effect on ERK 1/2 basal level in human PC3 cells assessed as downregulation of ERK 1/2 basal level at 48 hrs IC50 incubated for 48 hrs by Western immunoblot assay; type: ADME, cell-based; conditions: pc-3, 48 h
PC-3 [4] = experiment: Cytotoxicity against human PC3 cells assessed as decrease in cell viability after 72 hrs by MTS assay; type: functional, cell-based; conditions: PC-3, 72 h
PC-3 [5] = experiment: Effect on human PC3 cell growth assessed as population doubling at 48 hr IC50 incubated for 96 hrs by cell counter based trypan blue exclusion assay (reference value: 2.6); type: functional
Quadruplex DNA [6] = experiment: Stabilization of synthetic 5'Dabcyl/3'-FAM-labeled EGFR 272 G4 quadruplex DNA assessed as change in melting temperature at 1 uM by Fluorescence melting assay; type: nucleic-acid assay
PC-3 [7] = experiment: Cytotoxicity against human PC3 cells assessed as decrease in cell viability after 48 hrs by MTS assay; type: functional, cell-based; conditions: PC-3, 48 h
DU-145 [8] = experiment: Cytotoxicity against human DU145 cells assessed as decrease in cell viability after 48 hrs by MTS assay; type: functional, cell-based; conditions: DU-145, 48 h
DU-145 [9] = experiment: Effect on human DU145 cell growth assessed as population doubling at 48 hr IC50 incubated for 96 hrs by cell counter based trypan blue exclusion assay (reference value: 2.89); type: functional
DU-145 [10] = experiment: Effect of EGFR protein expression in human DU145 cell at 48 hrs IC50 treated for every week for 56 days by Western immunoblotting analysis; type: functional, cell-based
Quadruplex DNA [11] = experiment: Binding affinity to synthetic 5'Dabcyl/3'-FAM-labeled telomeric 22 G4 quadruplex DNA folded DNA assessed as entropy change by isothermal titration calorimetry; type: nucleic-acid assay
Quadruplex DNA [12] = experiment: Binding affinity to synthetic 5'Dabcyl/3'-FAM-labeled telomeric 22 G4 quadruplex DNA folded DNA assessed as enthalpy change by isothermal titration calorimetry; type: nucleic-acid assay
Quadruplex DNA [13] = experiment: Stabilization of synthetic 5'Dabcyl/3'-FAM-labeled EGFR 272 G4 quadruplex DNA assessed as change in melting temperature by fluorescence melting assay; type: nucleic-acid assay
DU-145 [14] = experiment: Down regulation of EGFR protein expression in human DU145 cells after 24 hrs by Western immunoblot assay; type: functional, cell-based
[15] = biological target: T1, Mitogen-activated protein kinase; ERK1/ERK2 (Homo sapiens) (UniProt P27361+P28482); experiment: Effect on ERK 1/2 phosphorylation at T202/Y204 residues in human PC3 cells assessed as decrease in ERK1/2 phosphorylation at T202/Y204 at 48 hrs IC50 incubated for 48 hrs by Western immunoblot assay; type: cell-based
T1 sequence (P27361 whole entry, looked up): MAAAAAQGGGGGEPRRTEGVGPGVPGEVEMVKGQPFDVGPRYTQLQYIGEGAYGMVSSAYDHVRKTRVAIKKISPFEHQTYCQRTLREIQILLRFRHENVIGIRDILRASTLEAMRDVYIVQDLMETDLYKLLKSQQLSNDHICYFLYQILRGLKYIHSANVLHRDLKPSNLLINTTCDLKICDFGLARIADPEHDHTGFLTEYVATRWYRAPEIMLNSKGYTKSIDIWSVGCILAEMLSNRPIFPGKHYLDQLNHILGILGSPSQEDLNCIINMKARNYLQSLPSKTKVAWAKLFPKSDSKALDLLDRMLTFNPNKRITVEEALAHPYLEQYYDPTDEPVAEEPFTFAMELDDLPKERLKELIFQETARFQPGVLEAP
T1 sequence (P28482 whole entry, looked up): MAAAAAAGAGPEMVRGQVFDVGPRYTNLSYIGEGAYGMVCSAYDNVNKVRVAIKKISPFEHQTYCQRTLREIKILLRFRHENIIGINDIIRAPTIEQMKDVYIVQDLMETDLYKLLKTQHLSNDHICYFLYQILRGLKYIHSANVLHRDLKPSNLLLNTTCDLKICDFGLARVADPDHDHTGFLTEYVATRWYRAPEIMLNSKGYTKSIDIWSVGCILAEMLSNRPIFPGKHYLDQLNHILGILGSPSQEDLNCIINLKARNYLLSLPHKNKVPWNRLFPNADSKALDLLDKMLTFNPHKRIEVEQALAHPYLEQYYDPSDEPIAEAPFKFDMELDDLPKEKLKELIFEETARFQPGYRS

Homo sapiens [16] = species: Homo sapiens; experiment: Effect on telomere DNA in human PC3 cells assessed as telomere DNA length at 48 hrs 0.5 times IC50 treated for every week for 56 days by pulsed field electrophoresis/southern blot based densitometric analysis (reference value: 4.6 +/- 0.3 kb); type: cell-based
DU-145 [17] = experiment: Effect on human DU145 cell growth assessed as change in cell growth at 72 hrs 0.5 times IC50 treated for every week for 56 days by cell counter based trypan blue exclusion assay; type: functional
PC-3 [18] = experiment: Cytotoxicity against human PC3 cells assessed as decrease in cell viability after 24 hrs by MTS assay; type: functional, cell-based; conditions: PC-3, 24 h
PC-3 [19] = experiment: Effect on ERK 1/2 basel level in human PC3 cells assessed as downregulation of ERK 1/2 basal level at 48 hrs IC50 incubated for 96 hrs by Western immunoblot assay; type: ADME, cell-based; conditions: pc-3, 96 h
[20] = biological target: T1, Mitogen-activated protein kinase; ERK1/ERK2 (Homo sapiens); experiment: Effect on ERK 1/2 phosphorylation at T202/Y204 residues in human PC3 cells assessed as decrease in ERK1/2 phosphorylation at T202/Y204 at 48 hrs IC50 incubated for 96 hrs by Western immunoblot assay; type: cell-based
[21] = biological target: RAC-alpha serine/threonine-protein kinase (Homo sapiens) (UniProt P31749); experiment: Effect on AKT phosphorylation at S473 in heterozygous PTEN-positive human DU145 cells as reduction in AKT phosphorylation at S473 residue at 48 hr IC50 incubated for 48 hrs by Western immunoblot assay
Sequence of RAC-alpha serine/threonine-protein kinase (Homo sapiens) (P31749 whole entry): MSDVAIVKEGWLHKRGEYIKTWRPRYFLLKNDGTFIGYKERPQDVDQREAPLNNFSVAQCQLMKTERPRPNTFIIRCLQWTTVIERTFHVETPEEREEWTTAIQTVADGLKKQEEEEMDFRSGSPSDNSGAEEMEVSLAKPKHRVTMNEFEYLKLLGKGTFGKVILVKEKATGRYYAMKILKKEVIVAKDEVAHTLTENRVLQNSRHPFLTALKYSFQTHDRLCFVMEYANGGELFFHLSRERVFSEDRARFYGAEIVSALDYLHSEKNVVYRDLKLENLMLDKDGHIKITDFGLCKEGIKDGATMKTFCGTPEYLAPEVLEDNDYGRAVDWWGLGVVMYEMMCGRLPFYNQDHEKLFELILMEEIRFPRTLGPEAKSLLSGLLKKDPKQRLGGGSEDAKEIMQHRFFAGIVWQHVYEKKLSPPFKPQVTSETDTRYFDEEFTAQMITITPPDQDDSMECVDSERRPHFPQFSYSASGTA

Homo sapiens [22] = species: Homo sapiens; experiment: Effect on telomere DNA in human DU145 cells assessed as telomere DNA length at 48 hrs 0.5 times IC50 treated for every week for 56 days by pulsed field electrophoresis/southern blot based densitometric analysis (reference value: 3.9 +/- 0.5 kb); type: cell-based
PC-3 [23] = experiment: Effect of EGFR protein expression in human PC3 cell assessed as reduction in EGFR level at 48 hrs IC50 treated for every week for 56 days by Western immunoblotting analysis; type: functional
PC-3 [24] = experiment: Effect on AKT basal level in homozygous PTEN-deficient human PC3 cells assessed as reduction in AKT basal level at 48 hr IC50 incubated for 48 to 96 hrs by Western immunoblot assay; type: ADME, cell-based
Quadruplex DNA [25] = experiment: Binding affinity to synthetic 5'Dabcyl/3'-FAM-labeled EGFR 272 G4 quadruplex DNA folded DNA assessed as enthalpy change by isothermal titration calorimetry; type: nucleic-acid assay
DU-145 [26] = experiment: Cytotoxicity against human DU145 cells assessed as decrease in cell viability after 24 hrs by MTS assay; type: functional, cell-based; conditions: DU-145, 24 h
Quadruplex DNA [27] = experiment: Binding affinity to synthetic 5'Dabcyl/3'-FAM-labeled EGFR 272 G4 quadruplex DNA folded DNA assessed as entropy change by isothermal titration calorimetry; type: nucleic-acid assay
PC-3 [28] = experiment: Effect on telomeric C-circle DNA in human PC3 cell assessed as alternative telomere maintenance based increase in telomeric C-circle DNA level at 48 hrs 0.5 times IC50 treated for every week for 56 days [32P]-labeled (CCCTAA)3 probe incubated for 56 days followed by post incubation of 8 hrs in presence of Bacillus phage phi29 DNA polymerase and further heat inactivation at 65 degreeC for 20 mins by dot blot based CC assay; type: functional
PC-3 [29] = experiment: Effect on ephithelial-mesenchymal transition in human PC3 cell assessed as increase in vimentin at 48 hrs 0.5 times IC50 treated for every week for 56 days by Western immunoblotting analysis; type: functional, cell-based
PC-3 [30] = experiment: Effect on human PC3 cell growth assessed as reduction in cell growth at 72 hrs 0.5 times IC50 treated for every week for 56 days by cell counter based trypan blue exclusion assay; type: functional
PC-3 [31] = experiment: Effect on ephithelial-mesenchymal transition in human PC3 cell assessed as decrease in E-cadherin expression at 48 hrs 0.5 times IC50 treated for every week for 56 days by Western immunoblotting analysis; type: functional, cell-based
Homo sapiens [32] = species: Homo sapiens; experiment: Effect on telomere DNA in human PC3 cell assessed as increase in telomere DNA length at 48 hrs 0.5 times IC50 treated for every week for 56 days by pulsed field electrophoresis/southern blot based densitometric analysis
PC-3 [33] = experiment: Down regulation of EGFR protein expression in human PC3 cells after 24 hrs by Western immunoblot assay; type: functional, cell-based
[34] = biological target: T1, Mitogen-activated protein kinase; ERK1/ERK2 (Homo sapiens); experiment: Effect on ERK 1/2 phosphorylation at T202/Y204 residues in human DU145 cells assessed as increase in ERK1/2 phosphorylation at T202/Y204 at 48 hrs IC50 incubated for 48 to 96 hrs by Western immunoblot assay; type: cell-based
DU-145 [35] = experiment: Effect on AKT basal level in heterozygous PTEN-positive human DU145 cells assessed as reduction in AKT basal level at 48 hrs IC50 incubated for 48 hrs by Western immunoblot assay; type: ADME, cell-based; conditions: du-145, 48 h
DU-145 [36] = experiment: Cytotoxicity against human DU145 cells assessed as decrease in cell viability after 72 hrs by MTS assay; type: functional, cell-based; conditions: DU-145, 72 h
Quadruplex DNA [37] = experiment: Stabilization of synthetic 5'Dabcyl/3'-FAM-labeled telomeric 22 G4 quadruplex DNA assessed as change in melting temperature by fluorescence melting assay; type: nucleic-acid assay
PC-3 [38] = experiment: Down regulation of EGFR protein expression in human PC3 cells at 48 hrs IC50 incubated for 48 hrs by Western immunoblot assay relative to control; type: functional
[39] = biological target: RAC-alpha serine/threonine-protein kinase (Homo sapiens) (UniProt P31749); experiment: Effect on AKT phosphorylation at S473 homozygous PTEN-deficient human PC3 cells as reduction in AKT phosphorylation at S473 residue at 48 hr IC50 incubated for 48 to 96 hrs by Western immunoblot assay
DU-145 [40] = experiment: Effect on ERK 1 basal level in human DU145 cells assessed as reduction in ERK 1 basal level at 48 hrs IC50 incubated for 48 hrs by Western immunoblot assay; type: ADME, cell-based; conditions: du-145, 48 h
PC-3 [41] = experiment: Induction of apoptosis in human PC3 cells assessed as increase in cleaved PARP1 level after 48 to 96 hrs by Western blot analysis; type: functional, cell-based
DU-145 [42] = experiment: Induction of apoptosis in human DU145 cells assessed as increase in cleaved PARP1 level after 48 to 96 hrs by Western blot analysis; type: functional, cell-based
PC-3 [43] = experiment: Down regulation of EGFR protein expression in human PC3 cells at 48 hrs IC50 incubated for 96 hrs by Western immunoblot assay relative to control; type: functional
DU-145 [44] = experiment: Effect on ERK 2 basal level in human DU145 cells assessed as reduction in ERK 2 basal level at 48 hrs IC50 incubated for 48 hrs by Western immunoblot assay; type: ADME, cell-based; conditions: du-145, 48 h

Activity (Quadruplex DNA [6]): Active
deltaS (Quadruplex DNA [11]): -10.1 cal/mol.K
deltaH (Quadruplex DNA [12]): -10.7 kcal/mol
Activity (Quadruplex DNA [13]): Active
Activity [15]: Active
Activity [20]: inactive
Activity [21]: inactive
deltaH (Quadruplex DNA [25]): -21.5 kcal/mol
deltaS (Quadruplex DNA [27]): -46.4 cal/mol.K
Activity (Homo sapiens [32]): Active
Activity [34]: Active
Activity (Quadruplex DNA [37]): Active
Activity [39]: Active
Compound: COc1ccc(CNCCCN2C(=O)c3ccc4c5c(ccc(c35)C2=O)C(=O)N(CCCNCc2ccc(OC)c(OC)c2OC)C4=O)c(OC)c1OC
Activity (DU-145 [1]): 20%
Activity (PC-3 [2]): Active
Activity (PC-3 [3]): Toxic
IC50 (PC-3 [4]): 0.63 µM
Activity (PC-3 [5]): 0.51
IC50 (PC-3 [7]): 0.97 µM
IC50 (DU-145 [8]): 2.26 µM
Activity (DU-145 [9]): 2
Activity (DU-145 [10]): inactive
Activity (DU-145 [14]): Dose-dependent effect
Activity (Homo sapiens [16]): 4.5 kilobase
Activity (DU-145 [17]): inactive
IC50 (PC-3 [18]): 1.36 µM
Activity (PC-3 [19]): Toxic
Activity (Homo sapiens [22]): 3.8 kilobase
inhibition (INH) (PC-3 [23]): 100%
Activity (PC-3 [24]): Toxic
IC50 (DU-145 [26]): 3.46 µM
Activity (PC-3 [28]): Active
Activity (PC-3 [29]): Active
Activity (PC-3 [30]): Active
Activity (PC-3 [31]): Active
Activity (PC-3 [33]): Dose-dependent effect
Activity (DU-145 [35]): Toxic
IC50 (DU-145 [36]): 1.72 µM
Activity (PC-3 [38]): 70 - 80%
Activity (DU-145 [40]): Toxic
Activity (PC-3 [41]): inactive
Activity (DU-145 [42]): Active

Activity (Quadruplex DNA [6]): Active
deltaS (Quadruplex DNA [11]): -1.9 cal/mol.K
deltaH (Quadruplex DNA [12]): -8 kcal/mol
Activity (Quadruplex DNA [13]): Active
Activity [15]: Active
Activity [20]: inactive
Activity [21]: inactive
deltaH (Quadruplex DNA [25]): -1.1 kcal/mol
deltaS (Quadruplex DNA [27]): 18.9 cal/mol.K
Activity (Homo sapiens [32]): Active
Activity [34]: Active
Activity (Quadruplex DNA [37]): Active
Activity [39]: Active
Compound: COc1ccccc1CNCCCN1C(=O)c2ccc3c4c(ccc(c24)C1=O)C(=O)N(CCCNCCCCN)C3=O
Activity (DU-145 [1]): 20%
Activity (PC-3 [2]): Active
Activity (PC-3 [3]): Toxic
IC50 (PC-3 [4]): 1.46 µM
Activity (PC-3 [43]): 50%
Activity (PC-3 [5]): 0.97
IC50 (PC-3 [7]): 2.44 µM
IC50 (DU-145 [8]): 2.73 µM
Activity (DU-145 [9]): 1.85
Activity (DU-145 [10]): inactive
Activity (DU-145 [14]): Dose-dependent effect
Activity (Homo sapiens [16]): 4.4 kilobase
Activity (DU-145 [17]): inactive
IC50 (PC-3 [18]): 2.8 µM
Activity (DU-145 [44]): Toxic
Activity (PC-3 [19]): Toxic
Activity (Homo sapiens [22]): 3.8 kilobase
inhibition (INH) (PC-3 [23]): 100%
Activity (PC-3 [24]): Toxic
IC50 (DU-145 [26]): 4.76 µM
Activity (PC-3 [28]): Active
Activity (PC-3 [29]): Active
Activity (PC-3 [30]): Active
Activity (PC-3 [31]): Active
Activity (PC-3 [33]): Dose-dependent effect
Activity (DU-145 [35]): Toxic
IC50 (DU-145 [36]): 2.05 µM
Activity (PC-3 [38]): 70 - 80%
Activity (DU-145 [40]): Toxic
Activity (PC-3 [41]): inactive
Activity (DU-145 [42]): Active

Reference: ChEMBL document CHEMBL4393726, “Distinct biological responses of metastatic castration resistant prostate cancer cells upon exposure to G-quadruplex interacting naphthalenediimide derivatives” (Eur J Med Chem, 2019)
